{
  "source": "patent US11000491B2",
  "about": "“Amino-aryl-benzamide compounds and methods of use thereof” (HEPANOVA, INC., priority 2017, dated 2021)",
  "key": {"Huh7 cells": {"system": "Huh7 cells", "assay": "LD content in Huh7 cells pre-treated with insulin, Oil-Red-O staining, absorbance OD 540 nm", "assay_type": "cell-based", "settings": "Homo sapiens, Huh-7; Huh7 cells pre-treated with 1 mM insulin, 24 h; read-out: LD contents IC50 (Oil-Red-O, OD 540 nm)", "how_it_was_run": "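Huh7 cells, mock-treated or pre-treated with 1 mM insulin, were then exposed to compound at the indicated amounts. Lipid droplets stained with Oil Red O and quantified by absorbance at OD 540 nm.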"}, "ACC": {"system": "ACC", "assay": "Lipogenic gene mRNA by real-time qPCR in Huh7 cells", "assay_type": "cell-based", "settings": "1 μM, 24 h", "text": "(§1) FIG. 8. Inhibition of various lipogenic gene mRNA levels following treatment with HPN-01. […] Sterol regulatory element-binding protein-1 (SREBP-1); Sterol regulatory element-binding protein-2 (SREBP-2); Fatty acid synthase (FASN); Stearoyl-CoA-desaturase (SCD1); Acetyl-CoA carboxylase (ACC); Elongation of very long chain fatty acids fatty acid elongase 6 (ELOVL6); Low density liporeceptor (LDLR); Fatty acid desaturase 1 (FADS1); Diacylglycerol 0-Acyltransferase 1 (DGAT1); Diacylglycerol 0-Acyltransferase 2 (DGAT2).\n(§2) Huh7 cells were treated with 1 μM of HPN-01 for 24 h, and the mRNA expression levels of various pivotal lipogenic enzymes were quantified by real-time qPCR. […] Folds of inhibition were as follows: SREBP-1: 2.98±0.23; SREBP-2: 4.01±0.31; FASN: 3.87±0.23; SCD1: 4.63±0.48; ACC: 4.12±0.34; ELOVL6: 2.84±0.22; LDLR: 3.02±0.11; FADS1: 3.06±0.17; DGAT1: 1.72±0.27; DGAT2: 3.77±0.45."}, "DGAT1": {"system": "DGAT1", "assay": "Lipogenic gene mRNA by real-time qPCR in Huh7 cells", "assay_type": "cell-based", "settings": "1 μM, 24 h", "text": "as §1, §2"}, "ELOVL6": {"system": "ELOVL6", "assay": "Lipogenic gene mRNA by real-time qPCR in Huh7 cells", "assay_type": "cell-based", "settings": "1 μM, 24 h", "text": "as §1, §2"}, "FADS1": {"system": "FADS1", "assay": "Lipogenic gene mRNA by real-time qPCR in Huh7 cells", "assay_type": "cell-based", "settings": "1 μM, 24 h", "text": "as §1, §2"}, "FASN": {"system": "FASN", "assay": "Lipogenic gene mRNA by real-time qPCR in Huh7 cells", "assay_type": "cell-based", "settings": "1 μM, 24 h", "text": "as §1, §2"}, "SCD1": {"system": "SCD1", "assay": "Lipogenic gene mRNA by real-time qPCR in Huh7 cells", "assay_type": "cell-based", "settings": "1 μM, 24 h", "text": "as §1, §2"}, "SREBP-1": {"system": "SREBP-1", "assay": "Lipogenic gene mRNA by real-time qPCR in Huh7 cells", "assay_type": "cell-based", "settings": "1 μM, 24 h", "text": "as §1, §2"}, "SREBP-2 [1]": {"system": "SREBP-2", "assay": "Lipogenic gene mRNA by real-time qPCR in Huh7 cells", "assay_type": "cell-based", "settings": "1 μM, 24 h", "text": "as §1, §2"}, "SREBP-2 [2]": {"system": "SREBP-2", "assay": "SREBP-2 expression in cultured primary human hepatocytes", "assay_type": "cell-based", "settings": "Hepatocyte", "how_it_was_run": "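Primary human hepatocytes in culture exposed to a range of HPN-01 derivative concentrations; SREBP-1 and SREBP-2 mRNA expression then measured to assess inhibition.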"}, "nSTZ+HFD NASH mice": {"system": "nSTZ+HFD NASH mice", "assay": "Streptozotocin (STZ) and high fat diet-induced (nSTZ+HFD) NASH mice", "assay_type": "in vivo, C57/BL6J mice", "settings": "5 or 15 mpk orally BID, 3 weeks", "method": "FIG. 27. Design of study to test in vivo HPN-01 efficacy on streptozotocin (STZ) and high fat diet-induced (nSTZ+HFD) NASH mice.\nThe effect of HPN-01 on various physical and biochemical parameters in mice induced to develop NASH was tested. Briefly, newborn C57/BL6J mice were divided into 5 groups, with 8 animals per group. […] The remaining four groups were injected on days 2, 3 and 4, with Vehicle (Vehicle consists of 40% PEG400:10% Cremophor EL:50% water) containing 90 μg of streptozotocin (STZ), and fed a high fat diet (HFD) from week 4 through week 9 to establish NASH hallmarks in the liver. One of the groups (Vehicle group) that received STZ was not given any further drug treatment. The remaining three groups received either orally administered Telmisartan or orally administered HPN-01 starting at week 6 and continuing for 3 weeks. Telmisartan was orally administered once per day (QD) at a dosage of 10 mpk (mg/kg weight); this group served as a positive control. HPN-01 was administrated orally twice a day (BID) with either a lower (5 mpk) or a higher (15 mpk) dose. For each group, body weight and food intake were recorded daily.\nAt the end of the study, animals were fasted overnight, and fasted blood glucose levels measured and compared with a fasted glucose level obtained on Day 1 of the study.\nMice were then euthanized, and whole blood drawn by cardiac puncture. Sera were prepared and stored at −80° C. for alanine aminotransferase (ALT), aspartate aminotransferase (AST), triglyceride (TG) and total cholesterol (TC) detection. Livers were isolated and liver weights were recorded. Liver tissues were stored at −80° C. for TG, TC detection, measurement of various inflammatory and fibrotic markers, and pathological studies.\nLiver tissues from various groups from the study shown in FIG. 27 were observed under a microscope following Hematoxylin and Eosin (H&E) stain and Oil-red-O staining, and an NAFLD activity score determined. Additional NAFLD/NASH pathology scores were also determined, including a hepatic steatosis score (FIG. 35B), a ballooning score (FIG. 35C) and an inflammation score (FIG. 35D)."}},
  "data": [
    {"smiles": "NC(=O)c1cc(-c2ccc(Cl)cc2)cc(-c2ccc(S(N)(=O)=O)cc2)c1N", "note": "[HPN-01, 2-amino-3-(p-sulfonamidophenyl)-5-(p-chlorophenyl) benzamide]", "values": [
      {"measurement": "IC50", "setting": "Huh7 cells", "result": 250, "unit": "nM"},
      {"measurement": "Folds of inhibition ACC mRNA", "setting": "ACC", "result": "4.12±0.34", "unit": "fold"},
      {"measurement": "Folds of inhibition DGAT1 mRNA", "setting": "DGAT1", "result": "1.72±0.27", "unit": "fold"},
      {"measurement": "Folds of inhibition ELOVL6 mRNA", "setting": "ELOVL6", "result": "2.84±0.22", "unit": "fold"},
      {"measurement": "Folds of inhibition FADS1 mRNA", "setting": "FADS1", "result": "3.06±0.17", "unit": "fold"},
      {"measurement": "Folds of inhibition FASN mRNA", "setting": "FASN", "result": "3.87±0.23", "unit": "fold"},
      {"measurement": "Folds of inhibition SCD1 mRNA", "setting": "SCD1", "result": "4.63±0.48", "unit": "fold"},
      {"measurement": "Folds of inhibition SREBP-1 mRNA", "setting": "SREBP-1", "result": "2.98±0.23", "unit": "fold"},
      {"measurement": "Folds of inhibition SREBP-2 mRNA", "setting": "SREBP-2 [1]", "result": "4.01±0.31", "unit": "fold"},
      {"measurement": "IC50", "setting": "SREBP-2 [2]", "result": 3.43, "unit": "µM"},
      {"measurement": "body weight", "setting": "nSTZ+HFD NASH mice", "result": "no effect"},
      {"measurement": "daily food intake", "setting": "nSTZ+HFD NASH mice", "result": "no effect"},
      {"measurement": "fasted blood glucose levels", "setting": "nSTZ+HFD NASH mice; Day-22 vs Day-1", "result": "no effect"},
      {"measurement": "elevation of hepatic TC", "setting": "nSTZ+HFD NASH mice; dose-dependent", "result": "significantly reversed"},
      {"measurement": "elevation of hepatic TG", "setting": "nSTZ+HFD NASH mice; dose-dependent", "result": "significantly reversed"},
      {"measurement": "elevation of serum ALT", "setting": "nSTZ+HFD NASH mice; dose-dependent", "result": "significantly reversed"},
      {"measurement": "elevation of serum AST", "setting": "nSTZ+HFD NASH mice; dose-dependent", "result": "significantly reversed"},
      {"measurement": "increase of serum total cholesterol (TC)", "setting": "nSTZ+HFD NASH mice; dose-dependent", "result": "significantly abated"},
      {"measurement": "increase of serum triglyceride (TG)", "setting": "nSTZ+HFD NASH mice; dose-dependent", "result": "significantly abated"},
      {"measurement": "liver COL1A1 level", "setting": "nSTZ+HFD NASH mice; dose-dependent", "result": "reduced"},
      {"measurement": "liver MCP-1 mRNA", "setting": "nSTZ+HFD NASH mice; dose-dependent", "result": "significantly suppressed"},
      {"measurement": "liver TGF-β1 level", "setting": "nSTZ+HFD NASH mice; dose-dependent", "result": "reduced"},
      {"measurement": "liver TIMP-1 level", "setting": "nSTZ+HFD NASH mice; dose-dependent", "result": "reduced"},
      {"measurement": "liver TNF-α mRNA", "setting": "nSTZ+HFD NASH mice; dose-dependent", "result": "significantly suppressed"}
    ]}
  ]
}
